Test results taken from article PMC7450057, “Enhancing intracellular accumulation and target engagement of PROTACs with reversible covalent chemistry” (Nature Communications, 2020).
Where “and” joins values, the source holds several entries; their conditions need not be identical. Equal values may be shown once.

Columns and labels:
BTK-NanoLuc fusion = molecular target: T1, BTK-NanoLuc fusion (Homo sapiens, UniProt Q06187); experiment: NanoBRET BTK in-cell target engagement assay; format: cell-based; details: for NanoBRET(%): Figure 3c
T1 construct: host or cells: HEK 293T/17
T1 sequence (Q06187 whole entry, the tested form may be a part): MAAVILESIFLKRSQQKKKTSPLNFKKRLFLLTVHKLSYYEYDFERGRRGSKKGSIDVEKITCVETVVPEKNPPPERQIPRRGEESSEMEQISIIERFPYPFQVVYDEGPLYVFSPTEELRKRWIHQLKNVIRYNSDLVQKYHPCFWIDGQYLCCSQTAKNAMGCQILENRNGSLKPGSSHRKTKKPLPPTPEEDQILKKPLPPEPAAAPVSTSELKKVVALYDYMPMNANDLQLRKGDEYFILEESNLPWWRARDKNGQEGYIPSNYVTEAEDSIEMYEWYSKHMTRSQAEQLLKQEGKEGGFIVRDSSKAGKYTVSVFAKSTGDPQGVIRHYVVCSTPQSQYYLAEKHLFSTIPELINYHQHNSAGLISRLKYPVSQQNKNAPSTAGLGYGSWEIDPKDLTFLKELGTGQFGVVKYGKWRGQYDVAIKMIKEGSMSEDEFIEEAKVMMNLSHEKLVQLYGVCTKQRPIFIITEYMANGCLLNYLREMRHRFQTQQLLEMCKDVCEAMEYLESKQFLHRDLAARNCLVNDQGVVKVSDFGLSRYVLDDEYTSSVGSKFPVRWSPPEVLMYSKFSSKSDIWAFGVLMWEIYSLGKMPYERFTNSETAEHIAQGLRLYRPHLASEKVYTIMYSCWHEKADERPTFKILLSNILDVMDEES
Procedure, shortened: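 Tracer-displacement IC50 derived from background-corrected BRET ratio (450 nm donor, 610 nm acceptor) in live HEK293/T17 cells transfected with BTK-NanoLuc. Cells were exposed for 2 h at 37 °C to 1.0 µM tracer plus 5-fold serial dilutions of compound from 10 µM.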

[1] = molecular target: truncated Cereblon protein (Homo sapiens, UniProt Q96SW2); experiment: CRBN binding assay (fluorescence quenching); details: for Fluorescence Intensity: Supplementary Figure 11, replicates
Sequence of truncated Cereblon protein (Q96SW2 318-426): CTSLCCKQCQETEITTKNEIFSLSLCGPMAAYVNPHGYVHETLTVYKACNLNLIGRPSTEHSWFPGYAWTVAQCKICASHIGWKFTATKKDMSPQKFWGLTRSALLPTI
Procedure, shortened: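 Kd derived from a quenching-curve fit (I=I0−If×Kd/P0+Kd+If) after buffer-blank subtraction. Compound used at 100 nM final with truncated Cereblon protein.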

[2] = Permeability by lipid-PAMPA method (Pharmaron); format: in vitro ADME; details: PAMPA
BTK = BTK (Homo sapiens, UniProt Q06187); experiment: In vitro BTK kinase assay (PhosphoSens); format: biochemical; parameters: purchased SignalChem B10-10H-10
Sequence of BTK (Q06187 whole entry): as the sequence (Q06187 whole entry, the tested form may be a part) above

MOLM-14 cells = experiment: AlamarBlue cell viability assay, MOLM-14; details: for MOLM-14 Cell Viability%: Figure 2f, 5 replicates
Protocol: The IC50 was calculated using GraphPad Prism software with a four-parameter dose-response curve fit.

NanoBRET(%) (BTK-NanoLuc fusion; 1.00E-05 M, triplicates): 19.811% and 15.5465% and 15.3581%
NanoBRET(%) (BTK-NanoLuc fusion; 1.60E-08 M, triplicates): 97.712% and 94.5586% and 94.4887%
NanoBRET(%) (BTK-NanoLuc fusion; 2.00E-06 M, triplicates): 33.1128% and 33.4469% and 31.5012%
NanoBRET(%) (BTK-NanoLuc fusion; 3.20E-09 M, triplicates): 87.6339% and 98.6398% and 114.053%
NanoBRET(%) (BTK-NanoLuc fusion; 4.00E-07 M, triplicates): 69.4314% and 86.9635% and 77.822%
NanoBRET(%) (BTK-NanoLuc fusion; 8.00E-08 M, triplicates): 100.734% and 107.362% and 104.968%
IC50 (BTK-NanoLuc fusion; HEK-293 cells, BTK tracer 1.0 µM, Table 1 / Fig. 3c, triplicates, read-out: BTK TE IC50,TE): 1270 nM
K′P,D (relative intracellular accumulation coefficient) (BTK-NanoLuc fusion; Kd (BTK)/IC50,TE (BTK)): 3.7 × 10^−3
intracellular accumulation of RC-1 relative to the compound (BTK-NanoLuc fusion; from K′P,D values, BTK (Table 1)): 40 folds
Fluorescence Intensity ([1]; CRBN 0 μM): 2486.8 and 2886.8 and 2579.8
Fluorescence Intensity ([1]; CRBN 0.734375 μM): 2242.8 and 2235.8 and 2132.8
Fluorescence Intensity ([1]; CRBN 1.46875 μM): 2244.8 and 1962.8 and 1899.8
Fluorescence Intensity ([1]; CRBN 2.9375 μM): 1778.8 and 1742.8 and 1730.8
Fluorescence Intensity ([1]; CRBN 5.875 μM): 1389.8 and 1303.8 and 1288.8
Fluorescence Intensity ([1]; CRBN 11.75 μM): 1034.8 and 1140.8 and 1274.8
Fluorescence Intensity ([1]; CRBN 23.5 μM): 1293.8 and 1294.8 and 1588.8
Kd ([1]; truncated Cereblon protein, fluorescence quenching, triplicates, read-out: Kd): 1800 nM
recovery at 16 h, 10 μM ([2]; Recovery%): 30%
Papp at 16 h, 10 μM ([2]; pH 7.4): < 0.00209 ×10⁻⁶ cm/s
IC50 (BTK; AssayQuant BTK assay kit, 2.5 nM BTK, 1 mM ATP, duplicates, read-out: BTK inhibition IC50): 21.2 nM
activity at 2.56 pM (BTK; Supplementary Figure 5, drug concentration 2.56 pM, replicates, read-out: Inhibition(%)): 87.5%
activity at 12.8 pM (BTK; Supplementary Figure 5, drug concentration 12.8 pM, replicates, read-out: Inhibition(%)): 93%
activity at 64 pM (BTK; Supplementary Figure 5, drug concentration 64 pM, replicates, read-out: Inhibition(%)): 88%
activity at 0.00032 µM (BTK; Supplementary Figure 5, drug concentration 320 pM, replicates, read-out: Inhibition(%)): 96.2%
activity at 0.0016 µM (BTK; Supplementary Figure 5, drug concentration 1600 pM, replicates, read-out: Inhibition(%)): 83.6%
activity at 0.008 µM (BTK; Supplementary Figure 5, drug concentration 8000 pM, replicates, read-out: Inhibition(%)): 71.7%
activity at 0.04 µM (BTK; Supplementary Figure 5, drug concentration 40000 pM, replicates, read-out: Inhibition(%)): 32.2%
activity at 0.2 µM (BTK; Supplementary Figure 5, drug concentration 200000 pM, replicates, read-out: Inhibition(%)): 14%
activity at 1 µM (BTK; Supplementary Figure 5, drug concentration 1000000 pM, replicates, read-out: Inhibition(%)): 4.94%
diminished BTK inhibitory activity compared with corresponding warhead control (BTK; ratio of IC50 values): < 3 fold
IC50 (MOLM-14 cells; Homo sapiens, MOLM-14, 72 h, read-out: Cell viability IC50, MOLM-14 cells, 72 h, Alamar Blue): 4100 nM
Structure (SMILES): CN(CCCNC(=O)CNc1cccc2c1C(=O)N(C1CCC(=O)NC1=O)C2=O)CCCC(=O)N1CCCC(n2nc(-c3ccc(Oc4ccccc4)cc3)c3c(N)ncnc32)C1 (centres unmarked) [RNC-1]
MOLM-14 Cell Viability% (MOLM-14 cells; 1.00E-05 M): 22.564% and 21.8706% and 28.4317% and 19.6302% and 20.5903%
MOLM-14 Cell Viability% (MOLM-14 cells; 1.60E-08 M): 88.2112% and 80.7255% and 82.3435% and 80.6899% and 90.8606%
MOLM-14 Cell Viability% (MOLM-14 cells; 2.00E-06 M): 59.495% and 70.377% and 65.6472% and 60.4907% and 61.7354%
MOLM-14 Cell Viability% (MOLM-14 cells; 3.20E-09 M): 88.958% and 75.6935% and 86.6821% and 75.5334% and 84.3883%
MOLM-14 Cell Viability% (MOLM-14 cells; 4.00E-07 M): 78.8051% and 78.5206% and 78.325% and 79.1785% and 78.2717%
MOLM-14 Cell Viability% (MOLM-14 cells; 6.40E-10 M): 75.0356% and 77.596% and 87.8023% and 83.7127% and 80.761%
MOLM-14 Cell Viability% (MOLM-14 cells; 8.00E-08 M): 68.7056% and 84.1394% and 79.712% and 75.2134% and 77.276%
